Measurements as given in patent publication US9302999B2, “Substituted triazoles as herbicides” (E. I. DU PONT DE NEMOURS AND COMPANY, priority 2012, dated 2016).

Legend:
Type in all cases: in vivo
[1] = tested on: velvetleaf (Abutilon theophrasti); assay: Test A pre-/postemergence: velvetleaf
Text: (§1) Seeds of barnyardgrass (Echinochloa crus-galli), crabgrass, large (large crabgrass, Digitaria sanguinalis), foxtail, giant (giant foxtail, Setaria faberii), morningglory (Ipomoea spp.), pigweed (Amaranthus retroflexus), velvetleaf (Abutilon theophrasti), wheat (Triticum aestivum), and corn (Zea mays) were planted into a blend of loam soil and sand and treated preemergence with a directed soil spray using test chemicals formulated in a non-phytotoxic solvent mixture which included a surfactant. At the same time these species were also treated with postemergence applications of test chemicals formulated in the same manner.
(§2) Plants ranged in height from two to ten cm and were in the one- to two-leaf stage for the postemergence treatment. Treated plants and untreated controls were maintained in a greenhouse for approximately ten days, after which time all treated plants were compared to untreated controls and visually evaluated for injury. Plant response ratings, summarized in Table A, are based on a 0 to 100 scale where 0 is no effect and 100 is complete control. A dash (-) response means no test result.

[2] = tested on: barnyardgrass (Echinochloa crus-galli); assay: Test A pre-/postemergence: barnyardgrass
Text: as §1, §2

[3] = tested on: crabgrass, large (large crabgrass, Digitaria sanguinalis); assay: Test A pre-/postemergence: crabgrass, large
Text: as §1, §2

[4] = tested on: wheat (Triticum aestivum); assay: Test A pre-/postemergence: wheat
Text: as §1, §2

[5] = tested on: pigweed (Amaranthus retroflexus); assay: Test A pre-/postemergence: pigweed
Text: as §1, §2

[6] = tested on: corn (Zea mays); assay: Test A pre-/postemergence: corn
Text: as §1, §2

[7] = tested on: morningglory (Ipomoea spp.); assay: Test A pre-/postemergence: morningglory
Text: as §1, §2

[8] = tested on: foxtail, giant (giant foxtail, Setaria faberii); assay: Test A pre-/postemergence: foxtail, giant
Text: as §1, §2

[9] = Postemergence, 125 g ai/ha, 0 to 100 scale, 0 is no effect, 100 is complete control
[10] = Postemergence, 500 g ai/ha, visual rating on 0 to 100 scale (0 no effect, 100 complete control), approximately ten days
[11] = Preemergence, 125 g ai/ha, 0 to 100 scale (0 no effect, 100 complete control)
[12] = Preemergence, 500 g ai/ha, 0 to 100 scale, 0 is no effect, 100 is complete control
[13] = Postemergence, 1000 g ai/ha, visual rating on 0 to 100 scale (0 no effect, 100 complete control), approximately ten days
[14] = Preemergence, 1000 g ai/ha, 0 to 100 scale, 0 is no effect, 100 is complete control
[15] = Preemergence, 125 g ai/ha, 0 to 100 scale where 0 is no effect and 100 is complete control
[16] = Preemergence, 500 g ai/ha, 0 to 100 scale (0 no effect, 100 complete control)

Compound | Velvetleaf plant response rating [1, 9] | Velvetleaf plant response rating [1, 10] | Barnyardgrass plant response rating [2, 9] | Barnyardgrass plant response rating [2, 10] | Crabgrass, Large plant response rating [3, 9] | Crabgrass, Large plant response rating [3, 10] | Wheat plant response rating [4, 9] | Wheat plant response rating [4, 10] | Pigweed plant response rating [5, 9] | Pigweed plant response rating [5, 10] | Corn plant response rating [6, 9] | Corn plant response rating [6, 10] | Morningglory plant response rating [7, 9] | Morningglory plant response rating [7, 10] | Foxtail, Giant plant response rating [8, 9] | Foxtail, Giant plant response rating [8, 10] | Plant response rating, Velvetleaf [1, 15] | Plant response rating, Wheat [4, 15] | Plant response rating, Pigweed [5, 15] | Plant response rating, Morningglory [7, 15] | also measured
Cc1nn(-c2ccc(C(F)(F)F)cc2)nc1Nc1cccc(C(F)(F)F)c1 [Compound 69] | 10 | 20 | 10 | 10 | 10 | 20 | 0 | 10 | 30 | 90 | 10 | 20 | 20 | 30 | 10 | 10 | – | – | – | – | Plant response rating, Velvetleaf [1, 11]: 0; Plant response rating, Velvetleaf [1, 12]: 0; Plant response rating, Barnyardgrass [2, 11]: 0; Plant response rating, Barnyardgrass [2, 12]: 0; Plant response rating, Crabgrass, Large [3, 11]: 0; Plant response rating, Crabgrass, Large [3, 12]: 10; Plant response rating, Wheat [4, 11]: 0; Plant response rating, Wheat [4, 12]: 0; Plant response rating, Pigweed [5, 11]: 0; Plant response rating, Pigweed [5, 12]: 10; Plant response rating, Corn [6, 11]: 0; Plant response rating, Corn [6, 12]: 0; Plant response rating, Morningglory [7, 11]: 0; Plant response rating, Morningglory [7, 12]: 0; Plant response rating, Foxtail, Giant [8, 11]: 0; Plant response rating, Foxtail, Giant [8, 12]: 0
Cc1nn(-c2ccc(F)cc2)nc1Cn1nc(C(F)(F)F)cc1C [Compound 97] | – | – | – | – | – | – | – | – | – | – | – | – | – | – | – | – | – | – | – | – | Velvetleaf plant response rating [1, 13]: 50; Velvetleaf plant response rating [1, 14]: 0; Barnyardgrass plant response rating [2, 13]: 30; Barnyardgrass plant response rating [2, 14]: 30; Crabgrass, Large plant response rating [3, 13]: 60; Crabgrass, Large plant response rating [3, 14]: 40; Wheat plant response rating [4, 13]: 0; Wheat plant response rating [4, 14]: 0; Pigweed plant response rating [5, 13]: 60; Pigweed plant response rating [5, 14]: 0; Corn plant response rating [6, 13]: 10; Corn plant response rating [6, 14]: 0; Morningglory plant response rating [7, 13]: 40; Morningglory plant response rating [7, 14]: 0; Foxtail, Giant plant response rating [8, 13]: 20; Foxtail, Giant plant response rating [8, 14]: 20
Cc1nn(-c2ccc(F)cc2)nc1Oc1nccc(C(F)(F)F)n1 [Compound 102] | 0 | 0 | 0 | 0 | 0 | 10 | 0 | 0 | 10 | 70 | 0 | 0 | 0 | 0 | 0 | 0 | 0 | 0 | 0 | 0 | Plant response rating, Velvetleaf [1, 12]: 0; Plant response rating, Barnyardgrass [2, 11]: 0; Plant response rating, Barnyardgrass [2, 12]: 0; Plant response rating, Crabgrass, Large [3, 11]: 0; Plant response rating, Crabgrass, Large [3, 12]: 0; Plant response rating, Wheat [4, 12]: 0; Plant response rating, Pigweed [5, 12]: 0; Plant response rating, Corn [6, 11]: 0; Plant response rating, Corn [6, 12]: 0; Plant response rating, Morningglory [7, 12]: 0; Plant response rating, Foxtail, Giant [8, 15]: 0; Plant response rating, Foxtail, Giant [8, 12]: 0
Cc1nn(-c2ccc(C(F)(F)F)cc2)nc1Oc1cc(C(F)(F)F)nn1C [Compound 104] | 30 | 60 | 20 | 30 | 50 | 70 | 0 | 0 | 70 | 100 | 10 | 20 | 60 | 90 | 20 | 50 | 0 | 0 | 30 | 0 | Plant response rating, Velvetleaf [1, 12]: 30; Plant response rating, Barnyardgrass [2, 11]: 10; Plant response rating, Barnyardgrass [2, 12]: 20; Plant response rating, Crabgrass, Large [3, 11]: 60; Plant response rating, Crabgrass, Large [3, 12]: 90; Plant response rating, Wheat [4, 12]: 0; Plant response rating, Pigweed [5, 12]: 90; Plant response rating, Corn [6, 11]: 0; Plant response rating, Corn [6, 12]: 0; Plant response rating, Morningglory [7, 12]: 0; Plant response rating, Foxtail, Giant [8, 15]: 60; Plant response rating, Foxtail, Giant [8, 12]: 90
CCc1nn(-c2ccc(C(F)(F)F)cc2)nc1Cn1cnc(C(F)(F)F)c1Cl [Compound 121] | 0 | 10 | 0 | 0 | 0 | 10 | 0 | 0 | 0 | 20 | 0 | 10 | 0 | 0 | 0 | 0 | 0 | 0 | 0 | 0 | Plant response rating, Velvetleaf [1, 16]: 0; Plant response rating, Barnyardgrass [2, 15]: 0; Plant response rating, Barnyardgrass [2, 16]: 0; Plant response rating, Crabgrass, Large [3, 15]: 0; Plant response rating, Crabgrass, Large [3, 16]: 10; Plant response rating, Wheat [4, 16]: 0; Plant response rating, Pigweed [5, 16]: 0; Plant response rating, Corn [6, 15]: 0; Plant response rating, Corn [6, 16]: 0; Plant response rating, Morningglory [7, 16]: 0; Plant response rating, Foxtail, Giant [8, 15]: 0; Plant response rating, Foxtail, Giant [8, 16]: 0
Cc1nn(-c2ccc(F)cc2)nc1Oc1cccc(C(F)(F)F)n1 [Compound 127] | 20 | 20 | 10 | 20 | 10 | 30 | 0 | 10 | 40 | 60 | 10 | 20 | 20 | 30 | 10 | 20 | 0 | 0 | 0 | 0 | Plant response rating, Velvetleaf [1, 16]: 0; Plant response rating, Barnyardgrass [2, 15]: 0; Plant response rating, Barnyardgrass [2, 16]: 10; Plant response rating, Crabgrass, Large [3, 15]: 10; Plant response rating, Crabgrass, Large [3, 16]: 40; Plant response rating, Wheat [4, 16]: 0; Plant response rating, Pigweed [5, 16]: 20; Plant response rating, Corn [6, 15]: 0; Plant response rating, Corn [6, 16]: 0; Plant response rating, Morningglory [7, 16]: 0; Plant response rating, Foxtail, Giant [8, 15]: 10; Plant response rating, Foxtail, Giant [8, 16]: 30
